Test results from patent EP4428121A1, “MODULATORS OF SORTILIN ACTIVITY” (Vesper Bio Aps, priority 2023, dated 2024).

Target: T1, Human (6-His)Sortilin (Homo sapiens, UniProt Q99523)
T1 construct: purchased RnD Systems
T1 sequence (Q99523 78-755 limits assumed): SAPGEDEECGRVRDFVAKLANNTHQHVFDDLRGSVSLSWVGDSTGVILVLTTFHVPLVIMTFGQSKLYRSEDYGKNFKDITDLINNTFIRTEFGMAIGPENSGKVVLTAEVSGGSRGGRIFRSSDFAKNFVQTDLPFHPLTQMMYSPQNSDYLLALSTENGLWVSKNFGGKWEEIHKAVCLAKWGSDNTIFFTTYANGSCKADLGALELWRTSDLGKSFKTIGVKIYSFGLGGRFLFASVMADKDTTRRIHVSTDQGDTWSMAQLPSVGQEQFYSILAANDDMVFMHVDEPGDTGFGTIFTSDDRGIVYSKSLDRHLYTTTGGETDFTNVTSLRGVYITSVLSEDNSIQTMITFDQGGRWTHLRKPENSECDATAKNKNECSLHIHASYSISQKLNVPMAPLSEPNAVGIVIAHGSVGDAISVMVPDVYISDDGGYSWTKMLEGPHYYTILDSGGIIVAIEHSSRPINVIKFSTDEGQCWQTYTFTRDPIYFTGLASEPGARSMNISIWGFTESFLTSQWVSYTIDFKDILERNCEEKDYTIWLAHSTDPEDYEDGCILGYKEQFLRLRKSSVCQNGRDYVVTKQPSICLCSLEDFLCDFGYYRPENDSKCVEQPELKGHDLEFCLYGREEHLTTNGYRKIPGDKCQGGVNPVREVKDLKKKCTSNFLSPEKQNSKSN
Experiment: Human Sortilin GCI (Grating-Coupled Interferometry) binding assay
Details: Creoptix WAVE-RAPID, single concentration (usually 1 µM, 10 µM or 100 µM), immobilised Human (6-His)Sortilin, 1:1 kinetic binding model

| Compound | Kd [µM] |
| --- | --- |
| CC(C)(C)CCC(Nc1cnc2ccccc2c1)c1nn[nH]n1 (racemic) [Example 33, [4,4-dimethyl-1-(2H-tetraazol-5-yl)pentyl]-3-quinolylamine] | 3.43 |
| CC(C)(C)CCC(Nc1ccc2ccccc2n1)c1nn[nH]n1 (racemic) [Example 34, [4,4-dimethyl-1-(2H-tetraazol-5-yl)pentyl]-2-quinolylamine] | 1.83 |
| CC(C)CC(Nc1ccc2ccccc2n1)c1nn[nH]n1 (racemic) [Example 40, [3-methyl-1-(2H-tetraazol-5-yl)butyl]-2-quinolylamine] | 22 |
| CC(C)CC(Nc1cc2ccccc2cn1)c1nn[nH]n1 (racemic) [Example 42, [3-methyl-1-(2H-tetraazol-5-yl)butyl]-3-isoquinolylamine] | 3.17 |
| CC(C)(C)CC(Nc1ncccn1)c1nn[nH]n1 (racemic) [Example 45, N-2-pyrimidinyl[3,3-dimethyl-1-(2H-tetraazol-5-yl)butyl]amine] | 91.1 |
| CC(C)CCC(Nc1cnc2ccccc2c1)c1nn[nH]n1 (racemic) [Example 55, [4-methyl-1-(2H-tetraazol-5-yl)pentyl]-3-quinolylamine] | 10.5 |
| CC(C)(C)CC(Nc1ccccn1)c1nn[nH]n1 (racemic) [Example 61, N-2-pyridyl[3,3-dimethyl-1-(2H-tetraazol-5-yl)butyl]amine] | 60 |
| CC(C)(C)CC(Nc1cccnc1)c1nn[nH]n1 (racemic) [Example 62, N-3-pyridyl[3,3-dimethyl-1-(2H-tetraazol-5-yl)butyl]amine] | 32.1 |
| CC(C)CC(Nc1ccccn1)c1nn[nH]n1 (racemic) [Example 66, [3-methyl-1-(2H-tetraazol-5-yl)butyl]-2-pyridylamine] | 179 |
| COc1ccc2ncnc(NC(CCC(C)(C)C)c3nn[nH]n3)c2c1 (racemic) [Example 78, [4,4-dimethyl-1-(2H-tetraazol-5-yl)pentyl](6-methoxy-4-quinazolinyl)amine] | 1.49 |
| COc1ccc2ncnc(NC(CCC(C)C)c3nn[nH]n3)c2c1 (racemic) [Example 79, [4-methyl-1-(2H-tetraazol-5-yl)pentyl](6-methoxy-4-quinazolinyl)amine] | 19.5 |
| CC(C)(C)CCC(Nc1ncnc2cc(F)ccc12)c1nn[nH]n1 (racemic) [Example 82, [4,4-dimethyl-1-(2H-tetraazol-5-yl)pentyl](7-fluoro-4-quinazolinyl)amine] | 0.316 |
| Cc1ccc2c(NC(CCC(C)(C)C)c3nn[nH]n3)ncnc2c1 (racemic) [Example 84, [4,4-dimethyl-1-(2H-tetraazol-5-yl)pentyl](7-methyl-4-quinazolinyl)amine] | 0.461 |
| CC(C)(C)CCC(Nc1ncnc2cnccc12)c1nn[nH]n1 (racemic) [Example 88, [4,4-dimethyl-1-(2H-tetraazol-5-yl)pentyl]-1,3,7-triaza-4-naphthylamine] | 0.426 |
| CC(C)(C)CCC(Nc1ncnc2cc(Br)ccc12)c1nn[nH]n1 (racemic) [Example 90, [4,4-dimethyl-1-(2H-tetraazol-5-yl)pentyl](7-bromo-4-quinazolinyl)amine] | 0.284 |
| CC(C)CC(Nc1ccncn1)c1nn[nH]n1 (racemic) [Example 105, [3-methyl-1-(2H-tetraazol-5-yl)butyl]-4-pyrimidinylamine] | 187 |
| CC(C)(C)CC[C@@H](Nc1ccc2ccccc2n1)c1nn[nH]n1 (single isomer, unassigned) [Example 95] | 6.07 |
| CC(C)(C)CC[C@H](Nc1cccnc1)c1nn[nH]n1 (single isomer, unassigned) [Example 99] | 1.56 |
| CC(C)(C)CC[C@H](Nc1cncc2ccccc12)C(=O)O [Example 29, (S)-2-(isoquinolin-4-ylamino)-5,5-dimethylhexanoic acid] | 0.0578 |

More lines, now with the values ahead:

| Kd [µM] | Compound |
| --- | --- |
| 1.07 | CC(C)(C)CCC(Nc1cccc2ccccc12)c1nn[nH]n1 (racemic) [Example 35, [4,4-dimethyl-1-(2H-tetraazol-5-yl)pentyl]-1-naphthylamine] |
| 8.75 | CC(C)CCC(Nc1cccc2ccccc12)c1nn[nH]n1 (racemic) [Example 38, [4-methyl-1-(2H-tetraazol-5-yl)pentyl]-1-naphthylamine] |
| 17.7 | CC(C)(C)CC(Nc1ccccc1)c1nn[nH]n1 (racemic) [Example 43, N-phenyl[3,3-dimethyl-1-(2H-tetraazol-5-yl)butyl]amine] |
| 3.78 | CC(C)CC(Nc1cncc2ccccc12)c1nn[nH]n1 (racemic) [Example 46, [3-methyl-1-(2H-tetraazol-5-yl)butyl]-4-isoquinolylamine] |
| 7.82 | CC(C)(C)CCC(Nc1ncccn1)c1nn[nH]n1 (racemic) [Example 47, N-2-pyrimidinyl[4,4-dimethyl-1-(2H-tetraazol-5-yl)pentyl]amine] |
| 2.47 | CC(C)(C)CC(Nc1cncc2ccccc12)c1nn[nH]n1 (racemic) [Example 48, [3,3-dimethyl-1-(2H-tetraazol-5-yl)butyl]-4-isoquinolylamine] |
| 98 | CC(C)CC(Nc1cncnc1)c1nn[nH]n1 (racemic) [Example 49, [3-methyl-1-(2H-tetraazol-5-yl)butyl]-5-pyrimidinylamine] |
| 28 | CC(C)(C)CC(Nc1cncnc1)c1nn[nH]n1 (racemic) [Example 50, N-5-pyrimidinyl[3,3-dimethyl-1-(2H-tetraazol-5-yl)butyl]amine] |
| 3.25 | Cn1ccc2cc(NC(CC(C)(C)C)c3nn[nH]n3)cnc21 (racemic) [Example 52, [3,3-dimethyl-1-(2H-tetraazol-5-yl)butyl](1-methyl-1H-1,7-diazainden-5-yl)amine] |
| 0.735 | Cn1ccc2cc(NC(CCC(C)(C)C)c3nn[nH]n3)cnc21 (racemic) [Example 53, [4,4-dimethyl-1-(2H-tetraazol-5-yl)pentyl](1-methyl-1H-1,7-diazainden-5-yl)amine] |
| 44.9 | CC(C)CC(Nc1cnc2ccccc2c1)c1nn[nH]n1 (racemic) [Example 56, [3-methyl-1-(2H-tetraazol-5-yl)butyl]-3-quinolylamine] |
| 123 | CC(C)CCC(Nc1ncccn1)c1nn[nH]n1 (racemic) [Example 57, N-2-pyrimidinyl[4-methyl-1-(2H-tetraazol-5-yl)pentyl]amine] |
| 5.9 | CC(C)(C)CC(Nc1cc2ccccc2cn1)c1nn[nH]n1 (racemic) [Example 60, [3,3-dimethyl-1-(2H-tetraazol-5-yl)butyl]-3-isoquinolylamine] |
| 8.71 | CC(C)CCC(Nc1cncc2ccccc12)c1nn[nH]n1 (racemic) [Example 64, [4-methyl-1-(2H-tetraazol-5-yl)pentyl]-4-isoquinolylamine] |
| 98.6 | CC(C)CC(Nc1ncccn1)c1nn[nH]n1 (racemic) [Example 65, [3-methyl-1-(2H-tetraazol-5-yl)butyl]-2-pyrimidinylamine] |
| 5.41 | CC(C)(C)CC(Nc1ncnc2ccccc12)c1nn[nH]n1 (racemic) [Example 77, [3,3-dimethyl-1-(2H-tetraazol-5-yl)butyl]-4-quinazolinylamine] |
| 3.88 | Cc1ccc2ncnc(NC(CCC(C)C)c3nn[nH]n3)c2c1 (racemic) [Example 80, [4-methyl-1-(2H-tetraazol-5-yl)pentyl](6-methyl-4-quinazolinyl)amine] |
| 2.22 | CC(C)CCC(Nc1ncnc2ccc(F)cc12)c1nn[nH]n1 (racemic) [Example 81, [4-methyl-1-(2H-tetraazol-5-yl)pentyl](6-fluoro-4-quinazolinyl)amine] |
| 0.251 | Cc1ccc2ncnc(NC(CCC(C)(C)C)c3nn[nH]n3)c2c1 (racemic) [Example 83, [4,4-dimethyl-1-(2H-tetraazol-5-yl)pentyl](6-methyl-4-quinazolinyl)amine] |
| 1.49 | CC(C)(C)CCC(Nc1ncnc2ccc(C(F)(F)F)cc12)c1nn[nH]n1 (racemic) [Example 86, [4,4-dimethyl-1-(2H-tetraazol-5-yl)pentyl][6-(trifluoromethyl)-4-quinazolinyl]amine] |
| 18.3 | CC(C)CCC(Nc1ncnc2ccccc12)c1nnn[nH]1 (racemic) [Example 101, N-(4-methyl-1-(1H-tetrazol-5-yl)pentyl)quinazolin-4-amine] |
| 25.5 | CC(C)CC(Nc1ncnc2ccccc12)c1nn[nH]n1 (racemic) [Example 103, [3-methyl-1-(2H-tetraazol-5-yl)butyl]-4-quinazolinylamine] |
| 74.2 | CC(C)CC(Nc1ccncc1)c1nnn[nH]1 (racemic) [Example 104, N-(3-methyl-1-(1H-tetrazol-5-yl)butyl)pyridin-4-amine] |
| 0.912 | CC(C)(C)CC[C@H](Nc1ccc2ccccc2n1)c1nn[nH]n1 (single isomer, unassigned) [Example 96] |
| 6.22 | CC(C)(C)CC[C@@H](Nc1cccnc1)c1nn[nH]n1 (single isomer, unassigned) [Example 100] |
| 2.84 | N-phenyl[4,4-dimethyl-1-(2H-tetraazol-5-yl)pentyl]amine [Example 39] |
